Columns and labels:
Type in all cases: cell-based
[1] = tested on: mold; assay: CO2 study in barley samples, propylene glycol esters compared with other esters (Example 10); conditions: barley 19.8% moisture, 0.02-0.08 mol/kg, molar basis
Experimental: (§1) Materials. The moisture level of barley samples was increased till 20.2%. [table] Statistical analysis. To determine significant differences in CO2-values (p<0.05), repeated measures analysis was performed by method of General Linear Models procedure (StatGraphics Centurion XV). The repeated measures statistical treatment of results was used because it can be used when change over time is assessed. Where significant differences resulted, Multiple Range Test was used to separate the means.

[2] = tested on: mold; assay: CO2 study in soybean meal samples (Example 13); conditions: 0.06 mol/kg, after one month of storage
Experimental: Efficacy on soybean meal. FIGS. 18 and 19 show the CO2 production (%) of the untreated soybean meal samples compared to the soybean meal samples treated with ester 1 and propionic acid at a dosage of 0.06 and 0.08 mol/kg, respectively. In the untreated samples, a fast increase in CO2 level was measured within the first days and the CO2 value stayed around 20% during the whole course of the trial. […] Samples treated with ester 1 and propionic acid at a dosage of 0.08 mol/kg were still completely stable after 84 days.

[3] = tested on: mold; assay: CO2 study in barley samples, dose response of propionic acid esters as mold inhibitors (Example 9); conditions: barley 20.2% moisture
Experimental: Materials. Barley was procured from a local supplier.
Efficacy. The moisture level of barley was determined before the start of the experiments4. The moisture level of the barley samples was adjusted to 20.2+/−0.5% by the addition of tap water. The barley samples, with the adjusted moisture content, were afterwards treated with the different extracted esters at different dose levels (0.02 mol/kg, 0.04 mol/kg, 0.06 mol/kg and 0.08 mol/kg). The untreated barley samples and samples treated with propionic acid (0.02 mol/kg-0.08 mol/kg) were included as controls. All barley samples were collected in closed plastic containers for evaluation of the CO2-production. The samples were stored at 25° C. The CO2-production in the headspace was monitored regularly during a 3-month period using the Edinburgh sensor Guardian NG. Three replicates were analyzed for each treatment.
as §1, with “Statistical” for “Materials. The moisture level of barley samples was increased till 20.2%. [table] Statistical”, “CO2-values values” for “CO2-values”

SMILES | efficacy in controlling mold growth (CO2 evolution), comparative [1] | CO2 levels during storage [2] | CO2 increase compared to the esters ([3]; 0.06 mol/kg) | storage time for which samples stay stable / after which CO2 starts increasing ([3]; 0.08 mol/kg)
CC(=O)O [acetic acid] | less effective in controlling mold growth compared to propionic acid | – | – | –
CCC(=O)O [propionic acid] | – | CO2 levels started to increase | CO2 increased faster | 40 days

Reference: US20230189803A1, “COMPOSITIONS CONTAINING ORGANIC ACIDS AND THEIR ESTERS TO PREVENT MOLD CONTAMINATION IN ANIMAL FEED” (KEMIN INDUSTRIES, INC., priority 2021, published 2023)
